According to patent USRE48335E1, “Polymyxin derivatives as antimicrobial compounds” (priority 2014, dated 2020):
Values after ≈ are worked out from the molar mass of the structure shown. Read-outs that look alike come from different tables or passages of the source. Positions of bridges follow the written chain, without caps; N, C: chain ends. Non-standard residues stand in square brackets, D forms with d. Residues, ends and D or L forms follow the SMILES beside them. *: point of attachment. X30 = Cc1cc(C)c(C(=O)*)c(C)c1; X24 = Cc1ccc(C(=O)*)c(C)c1; X26 = Cc1ccc(CC(=O)*)cc1C; X31 = O=C(c1ccc(Cl)cc1F)*; Octanoyl = CCCCCCCC(=O)*; Orn = NCCC[C@H](N)C(=O)O; Dab = NCC[C@H](N)C(=O)O; Abu = CC[C@H](N)C(=O)O; Dap = NC[C@H](N)C(=O)O; X35 = O=C(Cc1ccccc1F)*; X44 = O=C(c1ccccc1Cl)*

Legend:
Pseudomonas aeruginosa = test system: Pseudomonas aeruginosa
Procedure, shortened: (§1)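 Minimum inhibitory concentrations come from CLSI-standard broth microdilution in cation-adjusted Mueller-Hinton broth.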

Acinetobacter baumannii = test system: Acinetobacter baumannii
Procedure, shortened: as §1

Enterobacter cloacae = test system: Enterobacter cloacae
Procedure, shortened: as §1

Compound | Minimum inhibitory concentration, Pa ATCC 27853 (Pseudomonas aeruginosa; Pseudomonas aeruginosa ATCC 27853, broth microdilution in CAMHB) [µg/mL] | Minimum inhibitory concentration, Pa FADDI-PA022 (Pseudomonas aeruginosa; Pseudomonas aeruginosa FADDI-PA022, broth microdilution in CAMHB) [µg/mL] | Minimum inhibitory concentration, Pa FADDI-PA025 (Pseudomonas aeruginosa; Pseudomonas aeruginosa FADDI-PA025, broth microdilution in CAMHB) [µg/mL] | Minimum inhibitory concentration, Ab A ATCC 17978 (Acinetobacter baumannii; Acinetobacter baumannii ATCC 17978, broth microdilution in CAMHB) [µg/mL] | Minimum inhibitory concentration, Ab ATCC 19606 (Acinetobacter baumannii; Acinetobacter baumannii ATCC 19606, broth microdilution in CAMHB) [µg/mL] | Minimum inhibitory concentration, Ab FADDI-AB034 (Acinetobacter baumannii; Acinetobacter baumannii FADDI-AB034, broth microdilution in CAMHB) [µg/mL] | Minimum inhibitory concentration, Ec FADDI-EC001 (Enterobacter cloacae; Enterobacter cloacae FADDI-EC001, broth microdilution in CAMHB) [µg/mL] | Minimum inhibitory concentration, Ec FADDI-EC003 (Enterobacter cloacae; Enterobacter cloacae FADDI-EC003, broth microdilution in CAMHB) [µg/mL] | Minimum inhibitory concentration, Ec FADDI-EC006 (Enterobacter cloacae; Enterobacter cloacae FADDI-EC006, broth microdilution in CAMHB) [µg/mL] | Minimum inhibitory concentration, Pa ATCC 27853 (Pseudomonas aeruginosa) [µg/mL] | Minimum inhibitory concentration, Pa FADDI-PA022 (Pseudomonas aeruginosa) [µg/mL] | Minimum inhibitory concentration, Pa FADDI-PA025 (Pseudomonas aeruginosa) [µg/mL] | Minimum inhibitory concentration, Ab A ATCC 17978 (Acinetobacter baumannii) [µg/mL] | Minimum inhibitory concentration, Ab ATCC 19606 (Acinetobacter baumannii) [µg/mL] | Minimum inhibitory concentration, Ab FADDI-AB034 (Acinetobacter baumannii) [µg/mL] | Minimum inhibitory concentration, Ec FADDI-EC001 (Enterobacter cloacae) [µg/mL] | Minimum inhibitory concentration, Ec FADDI-EC003 (Enterobacter cloacae) [µg/mL] | Minimum inhibitory concentration, Ec FADDI-EC006 (Enterobacter cloacae) [µg/mL]
colistin [reference compound] | 1 | 1 | 2 | 0.5 | 1 | 0.5 | 0.25 | <0.125 | <0.125 |  |  |  |  |  |  |  |  | 
CC[C@@H]1NC(=O)[C@@H](CC(C)C)NC(=O)[C@H](CCN)NC(=O)[C@@H](NC(=O)[C@H](CN)NC(=O)[C@@H](NC(=O)[C@H](CCN)NC(=O)c2c(C)cc(C)cc2C)[C@@H](C)O)CCNC(=O)[C@H]([C@@H](C)O)NC(=O)[C@H](CCN)NC(=O)[C@H](CCN)NC1=O [Compound 92] (X30-[Dab]T[Dap][Dab][Dab][dL][Abu][Dab][Dab]T; lactam 4-C) |  |  |  |  |  |  |  |  |  | 0.5 (≈ 0.441 µM) | 0.5 (≈ 0.441 µM) | 4 (≈ 3.53 µM) | 0.5 (≈ 0.441 µM) | 4 (≈ 3.53 µM) | 4 (≈ 3.53 µM) | <0.125 | 0.25 (≈ 0.221 µM) | 2 (≈ 1.76 µM)
CC[C@@H]1NC(=O)[C@@H](CC(C)C)NC(=O)[C@H](CCN)NC(=O)[C@@H](NC(=O)[C@H](CN)NC(=O)[C@@H](NC(=O)[C@H](CCN)NC(=O)c2ccccc2Cl)[C@@H](C)O)CCNC(=O)[C@H]([C@@H](C)O)NC(=O)[C@H](CCN)NC(=O)[C@H](CCN)NC1=O [Compound 72] (X44-[Dab]T[Dap][Dab][Dab][dL][Abu][Dab][Dab]T; lactam 4-C) |  |  |  |  |  |  |  |  |  | 0.5 (≈ 0.444 µM) | 0.5 (≈ 0.444 µM) | 4 (≈ 3.55 µM) | 4 (≈ 3.55 µM) | 8 (≈ 7.11 µM) | 4 (≈ 3.55 µM) | 0.5 (≈ 0.444 µM) | 0.25 (≈ 0.222 µM) | 0.5 (≈ 0.444 µM)
CCCCCCCC(=O)N[C@@H](CCN)C(=O)N[C@H](C(=O)N[C@@H](CN)C(=O)N[C@H]1CCNC(=O)[C@H]([C@@H](C)O)NC(=O)[C@H](CCN)NC(=O)[C@H](CCN)NC(=O)[C@H](C(C)C)NC(=O)[C@@H](CC(C)C)NC(=O)[C@H](CCN)NC1=O)[C@@H](C)O [Compound 36] (Octanoyl-[Dab]T[Dap][Dab][Dab][dL]V[Dab][Dab]T; lactam 4-C) |  |  |  |  |  |  |  |  |  | 1 (≈ 0.887 µM) | 1 (≈ 0.887 µM) | 4 (≈ 3.55 µM) | 0.5 (≈ 0.443 µM) | 0.25 (≈ 0.222 µM) | 0.5 (≈ 0.443 µM) | 0.25 (≈ 0.222 µM) | <0.125 | 0.25 (≈ 0.222 µM)
CCCCCCCC(=O)N[C@@H](CN)C(=O)N[C@H](C(=O)N[C@@H](CN)C(=O)N[C@H]1CCNC(=O)[C@H]([C@@H](C)O)NC(=O)[C@H](CCN)NC(=O)[C@H](CCN)NC(=O)[C@H]([C@@H](C)O)NC(=O)[C@@H](CC(C)C)NC(=O)[C@H](CCN)NC1=O)[C@@H](C)O [Compound 48] (Octanoyl-[Dap]T[Dap][Dab][Dab][dL]T[Dab][Dab]T; lactam 4-C) |  |  |  |  |  |  |  |  |  | 0.5 (≈ 0.448 µM) | 2 (≈ 1.79 µM) | 4 (≈ 3.59 µM) | 1 (≈ 0.897 µM) | 1 (≈ 0.897 µM) | 1 (≈ 0.897 µM) | 0.25 (≈ 0.224 µM) | <0.125 | <0.125
CC[C@@H]1NC(=O)[C@@H](CC(C)C)NC(=O)[C@H](CCN)NC(=O)[C@@H](NC(=O)[C@H](CN)NC(=O)[C@@H](NC(=O)[C@H](CCN)NC(=O)c2ccc(Cl)cc2F)[C@@H](C)O)CCNC(=O)[C@H]([C@@H](C)O)NC(=O)[C@H](CCN)NC(=O)[C@H](CCN)NC1=O [Compound 134] (X31-[Dab]T[Dap][Dab][Dab][dL][Abu][Dab][Dab]T; lactam 4-C) |  |  |  |  |  |  |  |  |  | 0.5 (≈ 0.437 µM) | 1 (≈ 0.874 µM) | 1 (≈ 0.874 µM) | 2 (≈ 1.75 µM) | 2 (≈ 1.75 µM) | 0.5 (≈ 0.437 µM) | 0.25 (≈ 0.219 µM) | <0.125 | <0.125
CC[C@@H]1NC(=O)[C@@H](CC(C)C)NC(=O)[C@H](CCN)NC(=O)[C@@H](NC(=O)[C@H](CN)NC(=O)[C@@H](NC(=O)[C@H](CCN)NC(=O)c2ccc(C)cc2C)[C@@H](C)O)CCNC(=O)[C@H]([C@@H](C)O)NC(=O)[C@H](CCN)NC(=O)[C@H](CCN)NC1=O [Compound 89] (X24-[Dab]T[Dap][Dab][Dab][dL][Abu][Dab][Dab]T; lactam 4-C) |  |  |  |  |  |  |  |  |  | 0.5 (≈ 0.447 µM) | 1 (≈ 0.893 µM) | 4 (≈ 3.57 µM) | 1 (≈ 0.893 µM) | 4 (≈ 3.57 µM) | 1 (≈ 0.893 µM) | <0.125 | <0.125 | 2 (≈ 1.79 µM)
CC[C@@H]1NC(=O)[C@@H](CC(C)C)NC(=O)[C@H](CCN)NC(=O)[C@@H](NC(=O)[C@H](CN)NC(=O)[C@@H](NC(=O)[C@H](CCN)NC(=O)Cc2ccccc2F)[C@@H](C)O)CCNC(=O)[C@H]([C@@H](C)O)NC(=O)[C@H](CCN)NC(=O)[C@H](CCN)NC1=O [Compound 85] (X35-[Dab]T[Dap][Dab][Dab][dL][Abu][Dab][Dab]T; lactam 4-C) |  |  |  |  |  |  |  |  |  | 0.5 (≈ 0.445 µM) | 2 (≈ 1.78 µM) | 2 (≈ 1.78 µM) | 2 (≈ 1.78 µM) | 4 (≈ 3.56 µM) | 2 (≈ 1.78 µM) | 0.5 (≈ 0.445 µM) | 1 (≈ 0.89 µM) | 1 (≈ 0.89 µM)
CCCCCCCC(=O)N[C@@H](CCN)C(=O)N[C@H](C(=O)N[C@@H](CN)C(=O)N[C@H]1CCNC(=O)[C@H]([C@@H](C)O)NC(=O)[C@H](CCN)NC(=O)[C@H](CCN)NC(=O)[C@H]([C@@H](C)O)NC(=O)[C@@H](CC(C)C)NC(=O)[C@H](CCCN)NC1=O)[C@@H](C)O [Compound 55] (Octanoyl-[Dab]T[Dap][Dab][Orn][dL]T[Dab][Dab]T; lactam 4-C) |  |  |  |  |  |  |  |  |  | >32 | >32 | >32 | >32 | >32 | >32 | 1 (≈ 0.875 µM) | 4 (≈ 3.5 µM) | >32
CC[C@@H]1NC(=O)[C@@H](CC(C)C)NC(=O)[C@H](CCN)NC(=O)[C@@H](NC(=O)[C@H](CN)NC(=O)[C@@H](NC(=O)[C@H](CCN)NC(=O)Cc2ccc(C)c(C)c2)[C@@H](C)O)CCNC(=O)[C@H]([C@@H](C)O)NC(=O)[C@H](CCN)NC(=O)[C@H](CCN)NC1=O [Compound 103] (X26-[Dab]T[Dap][Dab][Dab][dL][Abu][Dab][Dab]T; lactam 4-C) |  |  |  |  |  |  |  |  |  | 0.5 (≈ 0.441 µM) | 0.5 (≈ 0.441 µM) | 2 (≈ 1.76 µM) | 0.5 (≈ 0.441 µM) | 0.5 (≈ 0.441 µM) | 0.5 (≈ 0.441 µM) | <0.125 | <0.125 | 0.5 (≈ 0.441 µM)
